How the values were obtained:
Slt35 = target: T1, Slt35 (Escherichia coli, UniProt P41052); experiment: intrinsic fluorescence quenching titration (also turbidimetric inhibition assay, IC50 […]); format: binding
T1 construct: gene mltB; N-terminal His-tag
T1 sequence (P41052 19-361): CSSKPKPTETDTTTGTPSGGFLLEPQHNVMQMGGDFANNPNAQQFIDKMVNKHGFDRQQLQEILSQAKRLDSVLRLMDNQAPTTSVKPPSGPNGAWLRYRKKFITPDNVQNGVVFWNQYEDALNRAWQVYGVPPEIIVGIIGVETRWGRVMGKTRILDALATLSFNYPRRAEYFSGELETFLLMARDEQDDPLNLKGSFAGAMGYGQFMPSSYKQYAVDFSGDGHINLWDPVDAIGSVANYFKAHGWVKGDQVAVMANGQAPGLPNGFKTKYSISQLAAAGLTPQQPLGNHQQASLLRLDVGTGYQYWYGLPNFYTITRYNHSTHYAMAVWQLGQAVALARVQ

hen egg white lysozyme = target: T2, hen egg white lysozyme (Gallus gallus, UniProt P00698); experiment: as above; format: binding
T2 construct: gene LYZ
T2 sequence (P00698 19-147): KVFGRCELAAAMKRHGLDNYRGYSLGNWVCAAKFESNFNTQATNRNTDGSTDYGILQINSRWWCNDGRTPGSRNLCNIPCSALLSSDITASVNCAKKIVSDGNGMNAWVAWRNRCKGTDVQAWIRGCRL

Glu35 = Glu35 (UniProt position 53, CAAKFESNFNT); experiment: NMR; conditions: not stated (presumably free, folded enzyme); cited from earlier work
Asp52 = Asp52 (UniProt position 70, TDGSTDYGILQ); experiment: NMR; conditions: not stated (presumably free, folded enzyme); cited from earlier work

For `Nc1ccc2nc3ccc(N)cc3[s+]c2c1` [thionine acetate], the Kd (Slt35) was 17.1 ± 1 µM and the Kd (hen egg white lysozyme) was 18.6 ± 1.2 µM.

For “Hen egg white lysozyme (lysozyme C) (Gallus gallus)”, the pKa (Glu35) is given as 6.2 and the pKa (Asp52) is given as 3.7.

Reference: article PMC8307938, “The Lysozyme Inhibitor Thionine Acetate Is Also an Inhibitor of the Soluble Lytic Transglycosylase Slt35 from Escherichia coli” (Molecules, 2021)
